Measurements taken from PMC6493465 (Oncotarget, 2019).
Read-outs that look alike come from different tables or passages of the source.

Key:
MOLM-13 cells [1] = test: Annexin-V staining (apoptosis), MOLM-13; assay type: cell-based, human; conditions: 48 hours; for percentage of annexin V-positive cells: control 4.1%
Procedure: MV4-11 cells were seeded in 12-well plates at a concentration of 2 × 10^5 cells/well and cultured overnight. […] MOLM-13 cells were seeded in 12-well plates at a concentration of 1 × 10^5 cells/well and cultured overnight.
Cells were harvested and incubated with Guava® Nexin Reagent (Merck Millipore Corporation, Billerica, MA). Annexin-V-positive cells were assessed using a Guava® PCA microcytometer (Merck Millipore Corporation); the percentage of annexin-V-positive cells (2000 cells per sample) was analyzed using CytoSoft™ software (Merck Millipore Corporation). Mean percentages of annexin-V-positive cells were derived from three independent experiments.

[2] = test system: MCL-1, BCL2L10, survivin and cPARP in MV4-11 cells; test: Western blot analysis of anti-apoptotic protein expression, MV4-11; assay type: cell-based, human; conditions: MV4-11, 24-hour treatment; gilteritinib 10 nM, AraC 1000 nM, DNR 6 nM, IDR 1 nM and 2 nM, Aza 1000 nM
Procedure: Cell lysates were prepared in radioimmunoprecipitation assay buffer (Thermo Fisher Scientific Inc., Rockford, IL) supplemented with phosphatase (Thermo Fisher Scientific Inc.) and protease inhibitors (Merck, Billerica, MA), electrophoresed on 4%–15% gels, and subsequently transferred to polyvinylidene difluoride membranes. The membranes were blocked using Blocking One (Nacalai Tesque Inc., Kyoto, Japan) for 1 hour and then incubated overnight with primary antibodies to MCL-1, BCL210, cPARP (all from Cell Signaling Technology, Danvers, MA, USA), survivin (R&D Systems, Inc., Minneapolis, MN), and α-actin (MilliporeSigma, Burlington, MA). The membranes were washed with TBS Tween-20 (TBS-T) buffer and incubated with appropriate horseradish peroxidase-linked secondary antibodies (Cell Signaling Technology Japan K.K.) for 1 hour at room temperature. After washing the membranes in TBS-T buffer, enhanced chemiluminescence Western Blotting Detection Reagent ECL-prime (GE Healthcare, Fairfield, CT) was applied. Signals were detected with a charge-coupled device camera (ImageQuant LAS4000; GE Healthcare); signal intensity was quantified using ImageQuant™ TL software (GE Healthcare).

[3] = Pharmacokinetic assays (plasma and tumor) in nude mice xenografted with MV4-11 cells; assay type: in vivo, mouse; conditions: for AUC24 ratio: combination versus the other group; for Cmax / Tmax / AUC: nude, mouse; for AUC: read-out: AUC24
Procedure: Plasma samples were prepared by centrifugation (n=3 per group; one sample in the combination group was excluded due to improper handling). […] These assays were conducted by Astellas Research Technologies Co., Ltd. under the guidance of Analysis & Pharmacokinetics Research Laboratories, Astellas Pharma, Inc., or by Nemoto Science Co., Ltd. (Ibaraki, Japan). […] Body weight and tumor assessments obtained on with MV4-11 cells received one of the following Day −1 were designated as Day 0 (baseline) measurements. combination treatments: 1. […] The percent tumor regression was calculated using the formula: […]

MOLM-13 cells [4] = test: Antitumor effects in mice xenografted with MOLM-13 cells; assay type: in vivo, mouse; conditions: MOLM-13 xenograft
Procedure: Four or five-week-old male nude mice (CanN.Cg-Foxn1nu/Crl/Crlj[nu/nu]; Charles River Laboratories Japan, Inc., Kanagawa, Japan) were maintained under specific pathogen-free conditions and received a standard diet and water supply throughout the study. All animal experimental procedures were performed in accordance with the Animal Ethics Committee of Astellas Pharma, Inc. For in vivo experiments, suspensions of MV4-11 and MOLM-13 cells in PBS at a concentration of 1 × 10^8 cells/mL were mixed with an equivalent volume of Matrigel® Basement Membrane Matrix, resulting in a final cell concentration of 5 × 10^7 cells/mL. The cells were subcutaneously injected into the flanks of mice at a concentration of 5 × 10^6 cells/0.1 mL/mouse. After tumor establishment, mice were divided into groups with similar mean tumor volume across groups.
Dosing volumes were 10 mL/kg for oral and intraperitoneal (IP) administration, and 5 or 10 mL/kg for intravenous (IV) administration. Treatment was administered once daily on designated days. The first day of treatment was designated as Day 0 and observation continued until Day 20 or 21 for mice xenografted with MV4-11 cells and Day 16 for mice xenografted with MOLM-13 cells. In mice xenografted with MV4-11 cells for experiments involving triple combination treatment, the control group received oral administration of vehicle (0.5% methylcellulose, Days 0–20), IP administration of vehicle (saline, Days 0–4), and IV administration of vehicle (saline, Days 0–2).
Mice with established tumors were selected and divided into groups on Day −1 or Day 0, so that the mean tumor volumes were similar across groups. Body weights and tumor volumes assessed on Day −1 were designated as Day 0 values. Body weight and tumor diameter were measured for each experimental group; antitumor activity was expressed as the percent inhibition of tumor growth and the percent of tumor regression (further details are outlined in the Supplementary Materials). […] Complete regression was defined as no palpable or observable tumor. […]
www.oncotarget.com Oncotarget, Supplementary Materials […]
Body weight and tumor diameter were measured group on Day 0]) in xenografted nude mice xenografted with MV4-11 cells on the indicated days for each experimental group: 1. […]
Tumor diameter was measured using a caliper and tumor 0.5% methylcellulose); 2. Oral methylcellulose (0.5%) in volume was determined by calculating the volume of an combination with IV IDR (0.5 mg/kg) and IP AraC (50 ellipsoid (ie, Length × Width2 × 0.5). The percent inhibition mg/kg); 3. […]
of tumor growth was calculated using the formula: kg) and IP AraC (50 mg/kg). […]
The percent tumor regression was calculated using […]

[5] = plasma, iv, 3 mg/kg, azacitidine in plasma, gilteritinib 3, azacitidine 3 mg/kg
[6] = plasma, iv, azacitidine in plasma, doses gilteritinib 3, azacitidine 0 mg/kg
[7] = tumor, iv, 3 mg/kg, azacitidine in tumor, gilteritinib 3, azacitidine 3 mg/kg
[8] = table title day 21, Aza experiment: oral gilteritinib 30 mg/kg/day Days 0-16, IV Aza 3 mg/kg/day Days 0-4
[9] = plasma, po, 3 mg/kg, gilteritinib in plasma, gilteritinib 3 mg/kg, AraC 0, IDR 0
[10] = plasma, po, 3 mg/kg, gilteritinib in plasma, gilteritinib 3, AraC 50, IDR 0.5 mg/kg
[11] = plasma, po, 3 mg/kg, gilteritinib in plasma, gilteritinib 3, azacitidine 0 mg/kg
[12] = plasma, po, 3 mg/kg, gilteritinib in plasma, gilteritinib 3, azacitidine 3 mg/kg
[13] = tumor, po, 3 mg/kg, gilteritinib in tumor, gilteritinib 3 mg/kg, AraC 0, IDR 0
[14] = tumor, po, 3 mg/kg, gilteritinib in tumor, gilteritinib 3, AraC 50, IDR 0.5 mg/kg
[15] = tumor, po, 3 mg/kg, gilteritinib in tumor, gilteritinib 3, azacitidine 0 mg/kg
[16] = tumor, po, 3 mg/kg, gilteritinib in tumor, gilteritinib 3, azacitidine 3 mg/kg

Question: What does the source list for `Nc1ncn([C@@H]2O[C@H](CO)[C@@H](O)[C@H]2O)c(=O)n1` [Aza, Azacitidine]?
Answer: mean percentage of annexin V-positive cells (MOLM-13 cells [1]; single agent: IDR 3 nM, AraC 100 nM or Aza 1000 nM): 21.9%; expression of MCL-1, BCL2L10, and survivin [2]: no change; AUC24 ratio ([3]; azacitidine in plasma): 0.87; AUC24 ratio ([3]; azacitidine in tumor): 1.17; AUC24 ([3]; azacitidine in tumor, doses gilteritinib 3, azacitidine 0 mg/kg): 323 ng·h/g; AUC24 ([3]; azacitidine in tumor, gilteritinib 3, azacitidine 3 mg/kg): 378 ng·h/g; Cmax [3, 5]: 3.44 µg/mL; Tmax [3, 5]: 0.08 h; AUC [3, 5]: 1.61 µg·h/mL; Cmax [3, 6]: 3.39 µg/mL; Tmax [3, 6]: 0.08 h; AUC [3, 6]: 1.85 µg·h/mL; Cmax [3, 7]: 96.8 ng/g; Tmax [3, 7]: 0.5 h; Cmax ([3]; tumor, iv, azacitidine in tumor): 61.3 ng/g; Tmax ([3]; tumor, iv, azacitidine in tumor, doses gilteritinib 3, azacitidine 0 mg/kg): 0.08 h; Inhibition of Tumor Growth (MOLM-13 cells [4]; [8]): 37%

Question: For `CCc1nc(C(N)=O)c(Nc2ccc(N3CCC(N4CCN(C)CC4)CC3)c(OC)c2)nc1NC1CCOCC1` [Gilteritinib], which “percentage of annexin V-positive cells” value (MOLM-13 cells [1]; gilteritinib alone 30 nM) is on record?
Answer: 32.0%

Question: And the “percentage of annexin V-positive cells” value (MOLM-13 cells [1]; gilteritinib alone 100 nM)?
Answer: 52.4%

Question: And the “expression of MCL-1, BCL2L10, and survivin” value [2]?
Answer: inhibited the expression

Question: And the “difference in PK profile alone versus in combination” value ([3]; alone or in combination with AraC/IDR or Aza)?
Answer: no discernable difference

Question: And the AUC24 ([3]; gilteritinib in tumor, gilteritinib 3 mg/kg, AraC 0, IDR 0)?
Answer: 6430.2 ng·h/g

Question: What about the AUC24 ([3]; gilteritinib in tumor, gilteritinib 3, AraC 50, IDR 0.5 mg/kg) of the same compound?
Answer: 6639.0 ng·h/g

Question: What about the AUC24 ([3]; gilteritinib in tumor, gilteritinib 3, azacitidine 0 mg/kg) of the same compound?
Answer: 3821 ng·h/g

Question: What about the AUC24 ([3]; gilteritinib in tumor, gilteritinib 3, azacitidine 3 mg/kg) of the same compound?
Answer: 3964 ng·h/g

Question: And the Cmax [3, 9]?
Answer: 0.0213 µg/mL

Question: What about the Tmax [3, 9] of the same compound?
Answer: 2 h

Question: What about the AUC [3, 9] of the same compound?
Answer: 0.156 µg·h/mL

Question: And the Cmax [3, 10]?
Answer: 0.0223 µg/mL

Question: And the Tmax [3, 10]?
Answer: 2 h

Question: What about the AUC [3, 10] of the same compound?
Answer: 0.199 µg·h/mL

Question: And the Cmax [3, 11]?
Answer: 0.011 µg/mL

Question: And the Tmax [3, 11]?
Answer: 2 h

Question: And the AUC [3, 11]?
Answer: 0.0658 µg·h/mL

Question: What about the Cmax [3, 12] of the same compound?
Answer: 0.0101 µg/mL

Question: And the Tmax [3, 12]?
Answer: 2 h

Question: And the AUC [3, 12]?
Answer: 0.0691 µg·h/mL

Question: What about the Cmax [3, 13] of the same compound?
Answer: 677 ng/g

Question: What about the Tmax [3, 13] of the same compound?
Answer: 2 h

Question: And the Cmax [3, 14]?
Answer: 437 ng/g

Question: And the Tmax [3, 14]?
Answer: 4 h

Question: And the Cmax [3, 15]?
Answer: 387 ng/g

Question: And the Tmax [3, 15]?
Answer: 4 h

Question: What about the Cmax [3, 16] of the same compound?
Answer: 349 ng/g

Question: And the Tmax [3, 16]?
Answer: 4 h

Question: What about the “time after administration at which plasma concentrations peaked” value ([3]; plasma, alone or in combination with AraC/IDR or Aza) of the same compound?
Answer: 2 h

Question: And the “concentration in tumor fraction versus plasma fraction” value ([3]; xenografted mice)?
Answer: higher in the tumor fraction

Question: What about the “Inhibition of Tumor Growth” value (MOLM-13 cells [4]; by Day 16, gilteritinib 30 mg/kg alone (both experiments)) of the same compound?
Answer: ≥ 90%

Question: What about the “Inhibition of Tumor Growth” value (MOLM-13 cells [4]; table title day 21, AraC/IDR experiment: oral gilteritinib 30 mg/kg/day Days 0-15, IP AraC 50 mg/kg/day Days 0-4, IV IDR 0.5 mg/kg/day Days 0-2) of the same compound?
Answer: 93%

Question: What about the “Inhibition of Tumor Growth” value (MOLM-13 cells [4]; [8]) of the same compound?
Answer: 90%
